Where a SMILES comes first, the peptide text is derived from it. Bridges are numbered along the chain shown (N, C = ends). [ ]: non-standard residue; d: D form. dDab(iPr) = CC(C)NCC[C@@H](N)C(=O)O; Hyp = O=C(O)[C@@H]1C[C@@H](O)CN1; dCit = NC(=O)NCCC[C@@H](N)C(=O)O; Agb = N=C(N)NCC[C@H](N)C(=O)O; Pen = CC(C)(S)[C@H](N)C(=O)O; dDab = NCC[C@@H](N)C(=O)O; Dab = NCC[C@H](N)C(=O)O
What was measured:
Assay type in all cases: cell-based
[1] = test system: human red blood cells (hRBC); conditions: red cells of human, 1 h, 200 μg/mL
Procedure, shortened: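 Peptides at 200 μg/mL incubated 1 h at 37 °C with 20% (v/v) washed human RBC, shaking. Hemolysis from supernatant OD540, expressed as percent of 2.5% Triton X-100 lysis, with PBS as 0%.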

[2] = test system: Escherichia coli ATCC 25922; conditions: ATCC 25922
Procedure, shortened: (§1)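 The MIC is the lowest peptide concentration, in μg/mL, with no visible growth after 18-20 h incubation at 35 °C. Serial two-fold peptide dilutions in water with 0.002% P-80 final were added to bacteria in cation-adjusted MHII broth, about 5×10^5 CFU/mL, following modified CLSI microdilution.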

[3] = test system: Escherichia coli MCR-1 Af 45; conditions: MCR-1 Af 45
Procedure, shortened: as §1

[4] = test system: Klebsiella pneumoniae SSI3010; conditions: SSI3010
Procedure, shortened: as §1

| SMILES | Escherichia coli ATCC 25922 MIC [2] | Escherichia coli MCR-1 Af45 MIC [3] | Klebsiella pneumoniae SSI3010 MIC [4] | Hemolysis at 0.2 g/L [1] |
| --- | --- | --- | --- | --- |
| CC[C@H](C)[C@H](NC(=O)[C@@H]1C[C@@H](O)CN1C(=O)[C@@H](N)C(C)C)C(=O)N[C@@H]1C(=O)N[C@@H](Cc2ccc(O)cc2)C(=O)N[C@@H](CO)C(=O)N[C@@H](CC(N)=O)C(=O)N[C@@H](CCCNC(=N)N)C(=O)N[C@@H](CCN)C(=O)N[C@@H](CC(N)=O)C(=O)N[C@H](CCN)C(=O)N[C@@H](CCCCN)C(=O)N[C@@H](CCN)C(=O)N[C@@H](CCN)C(=O)N[C@H](C(=O)N[C@@H](Cc2ccc(O)cc2)C(=O)O)CSSC1(C)C [Example 31, Val-Hyp-Ile-Pen-Tyr-Ser-Asn-Arg-Dab-Asn-^DDab-Lys-Dab-Dab-Cys-Tyr] (H-V[Hyp]I[Pen]YSNR[Dab]N[dDab]K[Dab][Dab]CY-OH; disulfide 4-15) | 0.125 mg/L | 0.125 mg/L | 0.25 mg/L | <1% |
| CC[C@H](C)[C@H](NC(=O)[C@@H]1C[C@@H](O)CN1C(=O)[C@@H](N)C(C)C)C(=O)N[C@@H]1C(=O)N[C@@H](Cc2ccc(O)cc2)C(=O)N[C@@H](CCN)C(=O)N[C@@H](CC(N)=O)C(=O)N[C@@H](CCCNC(=N)N)C(=O)N[C@@H](CCN)C(=O)N[C@@H](CO)C(=O)N[C@H](CCN)C(=O)N[C@@H](CCCCN)C(=O)N[C@@H](CCN)C(=O)N[C@@H](CO)C(=O)N[C@H](C(=O)N[C@@H](Cc2ccc(O)cc2)C(=O)O)CSSC1(C)C [Example 32, Val-Hyp-Ile-Pen-Tyr-Dab-Asn-Arg-Dab-Ser-^DDab-Lys-Dab-Ser-Cys-Tyr] (H-V[Hyp]I[Pen]Y[Dab]NR[Dab]S[dDab]K[Dab]SCY-OH; disulfide 4-15) | 1 mg/L | 0.5 mg/L | 0.5 mg/L | <1% |
| CC[C@H](C)[C@H](NC(=O)[C@@H]1C[C@@H](O)CN1C(=O)[C@@H](N)C(C)C)C(=O)N[C@@H]1C(=O)N[C@@H](Cc2ccc(O)cc2)C(=O)N[C@@H](CO)C(=O)N[C@@H](CC(N)=O)C(=O)N[C@@H](CCCNC(=N)N)C(=O)N[C@@H](CCN)C(=O)N[C@@H](CO)C(=O)N[C@H](CCN)C(=O)N[C@@H](CCCCN)C(=O)N[C@@H](CCN)C(=O)N[C@@H](CCN)C(=O)N[C@H](C(=O)N[C@@H](Cc2ccc(O)cc2)C(=O)O)CSSC1(C)C [Example 33, Val-Hyp-Ile-Pen-Tyr-Ser-Asn-Arg-Dab-Ser-^DDab-Lys-Dab-Dab-Cys-Tyr] (H-V[Hyp]I[Pen]YSNR[Dab]S[dDab]K[Dab][Dab]CY-OH; disulfide 4-15) | 0.125 mg/L | 0.125 mg/L | 0.125 mg/L | <1% |
| CC[C@H](C)[C@H](NC(=O)[C@@H]1C[C@@H](O)CN1C(=O)[C@@H](N)C(C)C)C(=O)N[C@@H]1C(=O)N[C@@H](Cc2ccc(O)cc2)C(=O)N[C@@H](CO)C(=O)N[C@@H](CC(N)=O)C(=O)N[C@@H](CCCNC(=N)N)C(=O)N[C@@H](CCN)C(=O)N[C@@H]([C@@H](C)O)C(=O)N[C@H](CCCNC(=N)N)C(=O)N[C@@H](CCCCN)C(=O)N[C@@H](CCN)C(=O)N[C@@H](CCN)C(=O)N[C@H](C(=O)N[C@@H](Cc2ccc(O)cc2)C(=O)O)CSSC1(C)C [Example 36, Val-Hyp-Ile-Pen-Tyr-Ser-Asn-Arg-Dab-Thr-^DArg-Lys-Dab-Dab-Cys-Tyr] (H-V[Hyp]I[Pen]YSNR[Dab]T[dR]K[Dab][Dab]CY-OH; disulfide 4-15) | 0.125 mg/L | 0.125 mg/L | 0.125 mg/L | <1% |
| CC[C@H](C)[C@H](NC(=O)[C@@H]1C[C@@H](O)CN1C(=O)[C@@H](N)C(C)C)C(=O)N[C@@H]1C(=O)N[C@@H](Cc2ccc(O)cc2)C(=O)N[C@@H](CO)C(=O)N[C@@H](CC(N)=O)C(=O)N[C@@H](CCCNC(=N)N)C(=O)N[C@@H](CCN)C(=O)N[C@@H]([C@@H](C)O)C(=O)N[C@H](CCN)C(=O)N[C@@H](C)C(=O)N[C@@H](CCN)C(=O)N[C@@H](CCN)C(=O)N[C@H](C(=O)N[C@@H](Cc2ccc(O)cc2)C(=O)O)CSSC1(C)C [Example 39, Val-Hyp-Ile-Pen-Tyr-Ser-Asn-Arg-Dab-Thr-^DDab-Ala-Dab-Dab-Cys-Tyr] (H-V[Hyp]I[Pen]YSNR[Dab]T[dDab]A[Dab][Dab]CY-OH; disulfide 4-15) | 0.25 mg/L | 0.25 mg/L | 0.5 mg/L | <1% |

More lines, main results first:

| Escherichia coli ATCC 25922 MIC [2] | Escherichia coli MCR-1 Af45 MIC [3] | Klebsiella pneumoniae SSI3010 MIC [4] | SMILES | Hemolysis at 0.2 g/L [1] |
| --- | --- | --- | --- | --- |
| 0.25 mg/L | 0.25 mg/L | 0.5 mg/L | CC[C@H](C)[C@H](NC(=O)[C@@H]1C[C@@H](O)CN1C(=O)[C@@H](N)C(C)C)C(=O)N[C@@H]1C(=O)N[C@@H](Cc2ccc(O)cc2)C(=O)N[C@@H](CO)C(=O)N[C@@H](CC(N)=O)C(=O)N[C@@H](CCCNC(=N)N)C(=O)N[C@@H](CC(N)=O)C(=O)N[C@@H]([C@@H](C)O)C(=O)N[C@H](CCN)C(=O)N[C@@H](CCCCN)C(=O)N[C@@H](CCN)C(=O)N[C@@H](CCN)C(=O)N[C@H](C(=O)N[C@@H](Cc2ccc(O)cc2)C(=O)O)CSSC1(C)C [Example 28, Val-Hyp-Ile-Pen-Tyr-Ser-Asn-Arg-Asn-Thr-^DDab-Lys-Dab-Dab-Cys-Tyr] (H-V[Hyp]I[Pen]YSNRNT[dDab]K[Dab][Dab]CY-OH; disulfide 4-15) | <1% |
| 0.25 mg/L | 0.125 mg/L | 0.5 mg/L | CC[C@H](C)[C@H](NC(=O)[C@@H]1C[C@@H](O)CN1C(=O)[C@@H](N)C(C)C)C(=O)N[C@@H]1C(=O)N[C@@H](Cc2ccc(O)cc2)C(=O)N[C@@H](CO)C(=O)N[C@@H](CC(N)=O)C(=O)N[C@@H](CCCNC(=N)N)C(=O)N[C@@H](CO)C(=O)N[C@@H]([C@@H](C)O)C(=O)N[C@H](CCN)C(=O)N[C@@H](CCCCN)C(=O)N[C@@H](CCN)C(=O)N[C@@H](CCN)C(=O)N[C@H](C(=O)N[C@@H](Cc2ccc(O)cc2)C(=O)O)CSSC1(C)C [Example 29, Val-Hyp-Ile-Pen-Tyr-Ser-Asn-Arg-Ser-Thr-^DDab-Lys-Dab-Dab-Cys-Tyr] (H-V[Hyp]I[Pen]YSNRST[dDab]K[Dab][Dab]CY-OH; disulfide 4-15) | <1% |
| 0.125 mg/L | 0.0625 mg/L | 0.125 mg/L | CC[C@H](C)[C@H](NC(=O)[C@@H]1C[C@@H](O)CN1C(=O)[C@@H](N)C(C)C)C(=O)N[C@@H]1C(=O)N[C@@H](Cc2ccc(O)cc2)C(=O)N[C@@H](CO)C(=O)N[C@@H](CC(N)=O)C(=O)N[C@@H](CCCNC(=N)N)C(=O)N[C@@H](CCNC(=N)N)C(=O)N[C@@H]([C@@H](C)O)C(=O)N[C@H](CCN)C(=O)N[C@@H](CCCCN)C(=O)N[C@@H](CCN)C(=O)N[C@@H](CCN)C(=O)N[C@H](C(=O)N[C@@H](Cc2ccc(O)cc2)C(=O)O)CSSC1(C)C [Example 30, Val-Hyp-Ile-Pen-Tyr-Ser-Asn-Arg-Agb-Thr-^DDab-Lys-Dab-Dab-Cys-Tyr] (H-V[Hyp]I[Pen]YSNR[Agb]T[dDab]K[Dab][Dab]CY-OH; disulfide 4-15) | <1% |
| 0.125 mg/L | 0.0625 mg/L | 0.25 mg/L | CC[C@H](C)[C@H](NC(=O)[C@@H]1C[C@@H](O)CN1C(=O)[C@@H](N)C(C)C)C(=O)N[C@@H]1C(=O)N[C@@H](Cc2ccc(O)cc2)C(=O)N[C@@H](CO)C(=O)N[C@@H](CC(N)=O)C(=O)N[C@@H](CCCNC(=N)N)C(=O)N[C@@H](CCN)C(=O)N[C@@H]([C@@H](C)O)C(=O)N[C@H](CCCCN)C(=O)N[C@@H](CCCCN)C(=O)N[C@@H](CCN)C(=O)N[C@@H](CCN)C(=O)N[C@H](C(=O)N[C@@H](Cc2ccc(O)cc2)C(=O)O)CSSC1(C)C [Example 35, Val-Hyp-Ile-Pen-Tyr-Ser-Asn-Arg-Dab-Thr-^DLys-Lys-Dab-Dab-Cys-Tyr] (H-V[Hyp]I[Pen]YSNR[Dab]T[dK]K[Dab][Dab]CY-OH; disulfide 4-15) | <1% |
| 0.5 mg/L | 0.5 mg/L | 0.5 mg/L | CC[C@H](C)[C@H](NC(=O)[C@@H]1C[C@@H](O)CN1C(=O)[C@@H](N)C(C)C)C(=O)N[C@@H]1C(=O)N[C@@H](Cc2ccc(O)cc2)C(=O)N[C@@H](CO)C(=O)N[C@@H](CC(N)=O)C(=O)N[C@@H](CCCNC(=N)N)C(=O)N[C@@H](CCN)C(=O)N[C@@H]([C@@H](C)O)C(=O)N[C@H](CCCNC(N)=O)C(=O)N[C@@H](CCCCN)C(=O)N[C@@H](CCN)C(=O)N[C@@H](CCN)C(=O)N[C@H](C(=O)N[C@@H](Cc2ccc(O)cc2)C(=O)O)CSSC1(C)C [Example 37, Val-Hyp-Ile-Pen-Tyr-Ser-Asn-Arg-Dab-Thr-^DCit-Lys-Dab-Dab-Cys-Tyr] (H-V[Hyp]I[Pen]YSNR[Dab]T[dCit]K[Dab][Dab]CY-OH; disulfide 4-15) | <1% |
| 0.125 mg/L | 0.125 mg/L | 0.5 mg/L | CC[C@H](C)[C@H](NC(=O)[C@@H]1C[C@@H](O)CN1C(=O)[C@@H](N)C(C)C)C(=O)N[C@@H]1C(=O)N[C@@H](Cc2ccc(O)cc2)C(=O)N[C@@H](CO)C(=O)N[C@@H](CC(N)=O)C(=O)N[C@@H](CCCNC(=N)N)C(=O)N[C@@H](CCN)C(=O)N[C@@H]([C@@H](C)O)C(=O)N[C@H](CCNC(C)C)C(=O)N[C@@H](CCCCN)C(=O)N[C@@H](CCN)C(=O)N[C@@H](CCN)C(=O)N[C@H](C(=O)N[C@@H](Cc2ccc(O)cc2)C(=O)O)CSSC1(C)C [Example 38, Val-Hyp-Ile-Pen-Tyr-Ser-Asn-Arg-Dab-Thr-^DDab(iPr)-Lys-Dab-Dab-Cys-Tyr] (H-V[Hyp]I[Pen]YSNR[Dab]T[dDab(iPr)]K[Dab][Dab]CY-OH; disulfide 4-15) | <1% |
